Where a name gives a salt, the structure may show the parent alone.
Molecular target: MK-2 (Homo sapiens, UniProt P49137)
Experiment: Determination of MK-2 IC50 (anion exchange resin capture assay, HSP-peptide phosphorylation)
Assay type: biochemical
Settings: read-out: MK-2 Avg. IC50
Procedure: The phosphorylation of HSP-peptide ([sequence]) by MAPKAPK2 was measured using an anion exchange resin capture assay method. […] The reaction was terminated and [γ^33P]ATP was removed from solution by the addition of 150 μl of AG 1×8 ion exchange resin in 900 mM sodium formate pH 3.0. A 50 μl aliquot of head volume was removed from the quenched reaction mixture and added to a 96-well plate, 150 μl of Microscint-40 (Packard) was added and the amount of phosphorylated-peptide was determined. Allow the Microscint to sit in the plates for 60 minutes prior to counting.
Compounds are evaluated as potential inhibitors of the MK2 kinase by measuring their effects on MK2 phosphorylation of the peptide substrate. Compounds may be screened initially at two concentrations prior to determination of IC50 values. Screening results are expressed as percent inhibition at the concentrations of compound tested. For IC50 value determinations, compounds are tested at six concentrations in ten-fold serial dilutions with each concentration tested in triplicate. Results are expressed as IC50 values in micromolar. The assay is performed at a final concentration of 2% DMSO.
Compounds are evaluated as potential inhibitors of the MK-2 kinase by measuring their effects on MK-2 phosphorylation of the peptide substrate. Compounds may be screened initially at two concentrations prior to determination of IC50 values. Screening results are expressed as percent inhibition at the concentrations of compound tested. For IC50 value determinations, compounds are tested at six concentrations in ten-fold serial dilutions with each concentration tested in triplicate. Results are expressed as IC50 values in micromolar. The assay is performed at a final concentration of 2% DMSO.

Sequence of MK-2 (P49137 whole entry, species assumed): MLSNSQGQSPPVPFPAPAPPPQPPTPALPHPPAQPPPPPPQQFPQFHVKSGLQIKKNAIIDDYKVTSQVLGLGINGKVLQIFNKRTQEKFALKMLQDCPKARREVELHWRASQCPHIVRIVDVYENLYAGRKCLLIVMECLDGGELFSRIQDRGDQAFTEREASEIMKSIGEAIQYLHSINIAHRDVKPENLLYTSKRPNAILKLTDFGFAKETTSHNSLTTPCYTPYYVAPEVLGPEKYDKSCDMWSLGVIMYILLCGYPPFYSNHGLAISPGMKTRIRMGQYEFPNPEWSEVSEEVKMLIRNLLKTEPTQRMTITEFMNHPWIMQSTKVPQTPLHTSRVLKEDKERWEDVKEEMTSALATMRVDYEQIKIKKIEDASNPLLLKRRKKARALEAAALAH

“2-[2-(2H-1,2,3-triazol-2-yl)pyridin-4-yl]-6,7- dihydropyrazolo[1,5-a]pyrazin-4(5H)-one compound with 2-[2-(1H-1,2,3-triazol-1- yl)pyridin-4-yl]-6,7-dihydropyrazolo[1,5- a]pyrazin-4(5H)-one (1:1) [Example 109]” was tested, and the IC50 was 5210 nM.
In the case of `NCCn1nc(-c2ccnc(-c3cnc4ccccc4c3)c2)cc1C(=O)O` [Example 1, dihydrochloride], the IC50 is reported as 26.9 nM.
For `NCCCn1nc(-c2ccnc(-c3cccc([N+](=O)[O-])c3)c2)cc1C(=O)O` [Example 2, dihydrochloride], the IC50 was 39.7 nM.
`NCC1Cn2nc(-c3ccnc(-c4cnc5ccccc5c4)c3)cc2C(=O)N1` (centres unmarked) [Example 3, trifluoroacetate] was tested, and the IC50 was 47.7 nM.
Molecule `O=C1NC(CO)Cn2nc(-c3ccnc(-c4cnc5ccccc5c4)c3)cc21` (centres unmarked) [Example 6] has an IC50 of 61.5 nM.
In the case of `NCCCn1nc(-c2ccnc(-c3cnc4ccccc4c3)c2)cc1C(=O)O` [Example 7], the IC50 is reported as 68.6 nM.
`NCCCn1nc(-c2ccnc(-c3ccc(O)cc3)c2)cc1C(=O)O` [Example 8] gave an IC50 of 102 nM.
`NCCn1nc(-c2ccnc(-c3cccc([N+](=O)[O-])c3)c2)cc1C(=O)O` [Example 9] gave an IC50 of 109 nM.
`CN(C)c1ccc(-c2cc(-c3cc(C(=O)O)n(CCN)n3)ccn2)cc1` [Example 10] was tested, and the IC50 was 117 nM.
`NCCn1nc(-c2ccnc(-c3ccc(OC(F)(F)F)cc3)c2)cc1C(=O)O` [Example 11] gave an IC50 of 161 nM.
`COc1ccc(-c2cc(-c3cc(C(=O)O)n(CCN)n3)ccn2)cc1` [Example 12, trifluoroacetate] showed an IC50 of 168 nM.
Work on `O=C1NCCn2nc(-c3ccnc(-c4cccc([N+](=O)[O-])c4)c3)cc21` [Example 13, dihydrochloride] yielded an IC50 of 171 nM.
`O=C1NCCn2nc(-c3ccnc(-c4ccc5ccncc5c4)c3)cc21` [Example 14] gave an IC50 of 194 nM.
`COc1ccc(-c2cc(-c3cc(C(=O)O)n(CCCN)n3)ccn2)cc1` [Example 15, trifluoroacetate] was tested, and the IC50 was 196 nM.
Work on `O=C1NCCn2nc(-c3ccnc(-c4ccc5[nH]ncc5c4)c3)cc21` [Example 16] yielded an IC50 of 199 nM.
In the case of `O=C1NCCn2nc(-c3ccnc(/C=C/c4cccnc4)c3)cc21` [Example 18, dihydrochloride], the IC50 is reported as 212 nM.
With `O=C1NCCn2nc(-c3ccnc(-c4cnc5ccccc5c4)c3)cc21` [Example 19, dihydrochloride] the IC50 was 216 nM.
`COc1cccc(-c2cc(-c3cc(C(=O)O)n(CCN)n3)ccn2)c1` [Example 20, dihydrochloride] showed an IC50 of 217 nM.
With `O=C1NCCn2nc(-c3ccnc(-c4ccc5ncccc5c4)c3)cc21` [Example 23, dihydrochloride] the IC50 was 298 nM.
Work on `O=C(O)c1cc(-c2ccnc(/C=C/c3ccccc3)c2)nn1CCCNCCc1ccc(Br)cc1` [Example 25, trifluoroacetate] yielded an IC50 of 315 nM.
Molecule `COc1ccc(-c2cc(-c3cc4n(n3)CCNC4=O)ccn2)cc1` [Example 26, dihydrochloride] has an IC50 of 318 nM.
For `O=C1NCCn2nc(-c3ccnc(/C=C/c4ccccc4)c3)cc21` [Example 28], the IC50 was 371 nM.
In the case of `O=C1NCCn2nc(-c3ccnc(-c4ccc(Cl)s4)c3)cc21` [Example 29], the IC50 is reported as 444 nM.
For `COc1ccc(-c2cc(-c3cc4n(n3)CCNC4=O)ccn2)cc1F` [Example 30], the IC50 was 471 nM.
`Cn1ccc2cc(-c3cc(-c4cc5n(n4)CCNC5=O)ccn3)ccc21` [Example 32] was tested, and the IC50 was 479 nM.
`O=C1NCCn2nc(-c3ccnc(-c4cccc(F)c4)c3)cc21` [Example 33, hydrochloride] was tested, and the IC50 was 505 nM.
With `O=C1NCCn2nc(-c3ccnc(-c4cccc(O)c4)c3)cc21` [Example 35, trifluoroacetate] the IC50 was 520 nM.
Work on `O=C1NCCn2nc(-c3ccnc(-c4ccc5c(c4)CCO5)c3)cc21` [Example 36, trifluoroacetate] yielded an IC50 of 521 nM.
`O=C1NCCn2nc(-c3ccnc(-c4ccc5occc5c4)c3)cc21` [Example 37, trifluoroacetate] was tested, and the IC50 was 543 nM.
In the case of `O=C1Cc2cc(-c3cc(-c4cc5n(n4)CCNC5=O)ccn3)ccc2N1` [Example 38, trifluoroacetate], the IC50 is reported as 554 nM.
`O=C1NCCCn2nc(-c3ccnc(-c4cnc5ccccc5c4)c3)cc21` [Example 39, trifluoroacetate] gave an IC50 of 577 nM.
`O=C1NCCn2nc(-c3ccnc(-c4cccnc4)c3)cc21` [Example 41, dihydrochloride] gave an IC50 of 586 nM.
For `O=C1NCCn2nc(-c3ccnc(-c4ccc(O)cc4)c3)cc21` [Example 42, trifluoroacetate], the IC50 was 611 nM.
In the case of `O=C1NCCn2nc(-c3ccnc(-c4ccc(OCCN5CCOCC5)cc4)c3)cc21` [Example 43, dihydrochloride], the IC50 is reported as 630 nM.
For `O=C1NCCn2nc(-c3ccnc(-c4cccc(Cl)c4)c3)cc21` [Example 44, trifluoroacetate], the IC50 was 638 nM.
With `NCCn1nc(-c2ccncc2)cc1C(=O)O` [Example 45, trifluoroacetate] the IC50 was 735 nM.
`CN(C)CCOc1ccc(-c2cc(-c3cc4n(n3)CCNC4=O)ccn2)cc1` [Example 46, trifluoroacetate] gave an IC50 of 766 nM.
Molecule `CS(=O)(=O)c1ccc(-c2cc(-c3cc4n(n3)CCNC4=O)ccn2)cc1` [Example 48, dihydrochloride] has an IC50 of 821 nM.
`O=C1NCCn2nc(-c3ccnc(-c4ccc5c(c4)CCCN5)c3)cc21` [Example 49, dihydrochloride] showed an IC50 of 835 nM.
`COc1ccc(-c2cc(-c3cc4n(n3)CCNC4=O)ccn2)cn1` [Example 50, trifluoroacetate] was tested, and the IC50 was 866 nM.
With `Nc1ccc(-c2cc(-c3cc4n(n3)CCNC4=O)ccn2)cc1` [Example 52, hydrochloride] the IC50 was 914 nM.
`O=Cc1c[nH]c2ccc(-c3cc(-c4cc5n(n4)CCNC5=O)ccn3)cc12` [Example 53, hydrochloride] gave an IC50 of 923 nM.
For `O=C1NCCn2nc(-c3ccnc(-c4ccc(CO)cc4)c3)cc21` [Example 54, trifluoroacetate], the IC50 was 929 nM.
With `O=C1NCCn2nc(-c3ccnc(-c4ccc5cc[nH]c5c4)c3)cc21` [Example 55, hydrochloride] the IC50 was 930 nM.
In the case of `O=C1NCCn2nc(-c3ccnc(-c4ccc5sccc5c4)c3)cc21` [Example 56, trifluoroacetate], the IC50 is reported as 965 nM.
In the case of `NC(=O)C1Cn2nc(-c3ccnc(-c4cnc5ccccc5c4)c3)cc2C(=O)N1` (centres unmarked) [Example 57, trifluoroacetate], the IC50 is reported as 1010 nM.
`CCOC(=O)c1cc(-c2ccnc(-c3cnc4ccccc4c3)c2)nn1CCN` [Example 58, hydrochloride] showed an IC50 of 1030 nM.
Molecule `O=C1NCCn2nc(-c3ccnc(-c4ccc5c(c4)CCN5)c3)cc21` [Example 59, hydrochloride] has an IC50 of 1070 nM.
Molecule `COc1ccc(-c2cc(-c3cc4n(n3)CCCNC4=O)ccn2)cc1` [Example 60] has an IC50 of 1090 nM.
In the case of `O=C1NCCn2nc(-c3ccnc(-c4cccc(Cl)c4)c3)c(Cl)c21` [Example 61, 3-chloro-2-[2-(3-chlorophenyl)pyridin-4-yl]-6,7-dihydropyrazolo[1,5-a]pyrazin-4(5H)-one], the IC50 is reported as 1130 nM.
Work on `O=Cc1ccc(-c2cc(-c3cc4n(n3)CCNC4=O)ccn2)cc1` [Example 62, hydrochloride] yielded an IC50 of 1150 nM.
Work on `NCCCn1nc(-c2ccncc2)cc1C(=O)O` [Example 63] yielded an IC50 of 1160 nM.
`O=C1NC(CCl)Cn2nc(-c3ccnc(-c4cnc5ccccc5c4)c3)cc21` (centres unmarked) [Example 64] gave an IC50 of 1170 nM.
Work on `O=C1NCCn2nc(-c3ccnc(-c4ccco4)c3)cc21` [Example 65] yielded an IC50 of 1200 nM.
`O=C1NCCCn2nc(-c3ccnc(-c4cccc([N+](=O)[O-])c4)c3)cc21` [Example 66] gave an IC50 of 1260 nM.
`O=C1NCCn2nc(-c3ccnc(-c4nccs4)c3)cc21` [Example 67, trifluoroacetate] was tested, and the IC50 was 1290 nM.
Molecule `Nc1cccc(-c2cc(-c3cc4n(n3)CCNC4=O)ccn2)c1` [Example 68] has an IC50 of 1300 nM.
In the case of `NCCCn1nc(-c2ccnc(-c3cccc([N+](=O)[O-])c3)c2)cc1C(N)=O` [Example 69], the IC50 is reported as 1320 nM.
`O=C1NCCn2nc(-c3ccnc(-n4ccnc4)c3)cc21` [Example 70, hydrochloride] showed an IC50 of 1360 nM.
In the case of `O=C1NCCCn2nc(-c3ccnc(-c4ccc(O)cc4)c3)cc21` [Example 71, hydrochloride], the IC50 is reported as 1370 nM.
Work on `O=C1NCCn2nc(-c3ccnc(-c4cccc(Cl)c4)c3)c(Br)c21` [Example 72, hydrochloride] yielded an IC50 of 1390 nM.
`O=C1NCCn2nc(-c3ccnc(-c4ccoc4)c3)cc21` [Example 73, hydrochloride] showed an IC50 of 1460 nM.
Molecule `CN(C)c1ccc(-c2cc(-c3cc4n(n3)CCNC4=O)ccn2)cc1` [Example 74, hydrochloride] has an IC50 of 1530 nM.
`O=C1NCCn2nc(-c3ccnc(-c4ccsc4)c3)cc21` [Example 75] was tested, and the IC50 was 1550 nM.
In the case of `O=C1NCCn2nc(-c3ccnc(-c4ccc5c(c4)OCCO5)c3)cc21` [Example 76, trifluoroacetate], the IC50 is reported as 1560 nM.
`COc1cncc(-c2cc(-c3cc4n(n3)CCNC4=O)ccn2)c1` [Example 77, trifluoroacetate] gave an IC50 of 1690 nM.
For `CC(C)NCc1ccc(-c2cc(-c3cc4n(n3)CCNC4=O)ccn2)cc1` [Example 78], the IC50 was 1730 nM.
`O=C1NCCCn2nc(-c3ccnc(-c4ccc(CO)cc4)c3)cc21` [Example 79, 2-{2-[4-(hydroxymethyl)phenyl]pyridin-4-yl}-5,6,7,8-tetrahydro-4H-pyrazolo[1,5-a][1,4]diazepin-4-one] gave an IC50 of 1750 nM.
In the case of `CN(C)CCc1ccc(-c2cc(-c3cc4n(n3)CCNC4=O)ccn2)cc1` [Example 80, hydrochloride], the IC50 is reported as 1980 nM.
Work on `O=C1NCCn2nc(-c3ccnc(-c4cncnc4)c3)cc21` [Example 81, hydrochloride] yielded an IC50 of 1990 nM.
In the case of `O=C1NCCn2nc(-c3ccnc(-c4ccc5c(c4)CNCC5)c3)cc21` [Example 82, trifluoroacetate], the IC50 is reported as 2080 nM.
Molecule `CS(=O)(=O)c1cccc(-c2cc(-c3cc4n(n3)CCNC4=O)ccn2)c1` [Example 83, trifluoroacetate] has an IC50 of 2100 nM.
In the case of `O=C1NCCn2nc(-c3ccnc(-c4cccc(OCCN5CCNCC5)c4)c3)cc21` [Example 84], the IC50 is reported as 2130 nM.
For `CS(=O)(=O)Nc1cccc(-c2cc(-c3cc4n(n3)CCNC4=O)ccn2)c1` [Example 85, dihydrochloride], the IC50 was 2290 nM.
In the case of `CN(C)c1ncnc2ccc(-c3cc(-c4cc5n(n4)CCNC5=O)ccn3)cc12` [Example 86], the IC50 is reported as 2400 nM.
Molecule `CN(C)CCOc1cccc(-c2cc(-c3cc4n(n3)CCNC4=O)ccn2)c1` [Example 87] has an IC50 of 2400 nM.
With `O=C1NCCn2nc(-c3ccncc3)cc21` [Example 88] the IC50 was 2600 nM.

— patent US20040152739A1, “Acyclic pyrazole compounds for the inhibition of mitogen activated protein kinase-activated protein kinase-2” (priority 2002, published 2004)
